Tests used:
[1] = test system: Swiss-Webster male mice; test: Mouse Activity and Screen Test Procedure (MAST): screen test (ST); type: in vivo; settings: one hour postinjection
Description: The compounds of the invention are new chemical substances which are useful as pharmaceutical agents for the treatment of psychoses. The antipsychotic activity of representative compounds of the invention was established by the Mouse Activity and Screen Test Procedrue (MAST) described below.
Nine unfasted Swiss-Webster male mice weighing 20-30 g equally divided into three groups for each drug dose to be tested. That is, data for each dose level was generated by three separated groups of three mice each.
A minimum of three dose levels (10, 30, and 100 mg/kg) are tested for each drug. Treatments are administered intraperitoneally one hour prior to testing. All dosages are calculated as parent compound and given in volumes of 10 ml/kg. Compounds are dissolved or suspended in 0.2% Methocel. Control animals are injected with Methocel.
Testing: A two part testing procedure is started one hour postinjection. First, the screen test (ST) is performed (see Pharmac. Biochem. Behav. 6, 351-353, 1977). Briefly this test consists of placing mice on individual wire screens which are then rotated 180 degrees at the start of a 60 second observation period. The number of mice falling off the inverted screen is recorded.
Data: The data obtained from the screen test are expressed as percent of mice falling off the screen. Data derived from locomotor activity of drug treated mice are compared to the activity of vehicle treated animals and are expressed as percent inhibition of spontaneous locomotion. All percentages reported for inhibition of locomotion (LI) are based upon data accumulated for one hour. Both phases of testing are graded: A=60-100%; G=31-59%; and N=0-30%. An overall dose rating is obtained by the following criteria:
LAD refers to the lowest dose at which an A rating is achieved. […] Utilizing this procedure, an overall dose rating of A was obtained for the noted compound at the indicated dose. The compounds are identified in the Examples.

[2] = molecular target: T1, adenosine A1 receptor (Rattus norvegicus, UniProt P25099); test: Adenosine Receptor Binding - A1 Receptor Affinity (RBA1); settings: [3H]-CHA, rat whole brain membranes; read-out: RBA-1
T1 construct: Whole brain minus cerebellum and brainstem from male Long Evans rats (150-200 g) was homogenized; from tissue; host or cells: rat whole brain minus cerebellum and brainstem, membrane homogenate
T1 sequence (P25099 1-326): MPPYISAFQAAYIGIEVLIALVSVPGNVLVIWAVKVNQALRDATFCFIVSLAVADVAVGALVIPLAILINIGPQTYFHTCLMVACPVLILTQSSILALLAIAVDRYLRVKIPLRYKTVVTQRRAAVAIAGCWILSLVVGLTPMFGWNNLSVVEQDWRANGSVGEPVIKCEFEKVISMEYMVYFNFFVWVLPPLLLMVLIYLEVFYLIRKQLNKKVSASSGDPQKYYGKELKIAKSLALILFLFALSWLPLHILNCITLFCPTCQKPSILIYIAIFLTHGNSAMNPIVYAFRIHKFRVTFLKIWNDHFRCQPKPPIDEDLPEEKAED
Procedure: Adenosine Receptor Binding - A1 Receptor Affinity (RBA1)
Whole brain minus cerebellum and brainstem from male Long Evans rats (150-200 g) was homogenized in 30 volumes of ice-cold 0.05 M Tris-HCI buffer pH 7.7 using a Brinkman Polytron PT-10 (setting number 6 for 20 seconds) and centrifuged for ten minutes at 20,000 x g (Sorvall RC-2), 4°C. The supernatant was discarded, and the pellet was resuspended and centrifuged as before. The pellet was resuspended in 20 ml Tris-HCI buffer containing two International Units/ml of adenosine deaminase (Sigma type III from calf intestinal mucosa), incubated at 37°C for 30 minutes, then subsequently at 0°C for ten minutes. The homogenate was again centrifuged, and the final pellet was resuspended in ice-cold 0.05 M Tris-HCI buffer pH 7.7 to a concentration of 20 mg/ml original wet tissue weight and used immediately.
Tissue homogenate (10 mg/ml) was incubated in 0.05 M Tris-HCI buffer pH 7.7 containing 1.0 nM [^3H]-N^6-cyclohexyladenosine (^3H]-CHA) with or without test agents in triplicate for one hour at 25°C. Incubation volume was 2 ml. Unbound [^3H]-CHA was separated by rapid filtration under reduced pressure through Whatman glass fiber (GF/B) filters. The filters were rinsed three times with 5 ml of ice cold 0.05 M Tris-HCI buffer pH 7.7. The radio-labeled ligand retained on the filter was measured by liquid scintillation spectrophotometry after shaking the filters for one hour or longer on a mechanical shaker in 10 ml of Beckman Ready Solv HP scintillation cocktail.
Nonspecific binding was defined as the binding which occurred in the presence of 1 mM thophylline. […] The Scatchard plot was calculated by linear regression of the line obtained by plotting the amount of radioligand bound (pmoles/gram of tissue) versus [formula] Since the amount of radioligand bound was a small fraction of the total amount added, free radioligand was defined as the concentration (nM) of radioligand added to the incubation mixture. The Hill coefficient was calculated by linear regression of the line obtained by plotting the log of the bound radioligand vs the log of the [formula] The maximal number of binding sites (Bmax) was calculated from the Scatchard plot.

[3] = test system: Swiss-Webster male mice; test: Mouse Activity and Screen Test Procedure (MAST): locomotor activity in actophotometer; type: in vivo; settings: one hour prior to testing
Procedure: Nine unfasted Swiss-Webster male mice weighing 20-30 g equally divided into three groups for each drug dose to be tested. That is, data for each dose level was generated by three separated groups of three mice each. A minimum of three dose levels (10, 30, and 100 mg/kg) are tested for each drug. Treatments are administered intraperitoneally one hour prior to testing. All dosages are calculated as parent compound and given in volumes of 10 ml/kg. […] Control animals are injected with Methocel. […] The actophotometer consists of a cylindrical chamber whose center is occupied by another cylinder which contains the illumination for six photocells located on the perimeter of the chamber. Six light-beam interruptions equal one count. […] Data: The data obtained from the screen test are expressed as percent of mice falling off the screen. Data derived from locomotor activity of drug treated mice are compared to the activity of vehicle treated animals and are expressed as percent inhibition of spontaneous locomotion. All percentages reported for inhibition of locomotion (LI) are based upon data accumulated for one hour. […] An overall dose rating is obtained by the following criteria: LAD refers to the lowest dose at which an A rating is achieved. […] The compounds are identified in the Examples.

| SMILES | Screen test failure ([1]; 1 mg/kg intraperitoneally) [%] | Screen test failure ([1]; 3 mg/kg intraperitoneally) [%] | Screen test failure ([1]; 10 mg/kg intraperitoneally) [%] | Screen test failure ([1]; 30 mg/kg intraperitoneally) [%] | IC50 [2] [nM] | Screen test failure ([1]; 0.03 mg/kg intraperitoneally) [%] | Screen test failure ([1]; 0.1 mg/kg intraperitoneally) [%] | Screen test failure ([1]; 0.3 mg/kg intraperitoneally) [%] | Screen test failure ([1]; 100 mg/kg intraperitoneally) [%] | Screen test failure ([1]; 9.0 mg/kg intraperitoneally) [%] | Inhibition of mouse locomotor activity ([3]; 1 mg/kg intraperitoneally) [%] | Inhibition of mouse locomotor activity ([3]; 3 mg/kg intraperitoneally) [%] | Inhibition of mouse locomotor activity ([3]; 10 mg/kg intraperitoneally) [%] | Inhibition of mouse locomotor activity ([3]; 30 mg/kg intraperitoneally) [%] | Inhibition of mouse locomotor activity ([3]; 0.03 mg/kg intraperitoneally) [%] | Inhibition of mouse locomotor activity ([3]; 0.1 mg/kg intraperitoneally) [%] | Inhibition of mouse locomotor activity ([3]; 0.3 mg/kg intraperitoneally) [%] | Inhibition of mouse locomotor activity ([3]; 100 mg/kg intraperitoneally) [%] | Inhibition of mouse locomotor activity ([3]; 9.0 mg/kg intraperitoneally) [%] |
| --- | --- | --- | --- | --- | --- | --- | --- | --- | --- | --- | --- | --- | --- | --- | --- | --- | --- | --- | --- |
| CC(=O)Oc1ccccc1C(=O)OC[C@H]1O[C@@H](n2cnc3c(NC4CCCc5ccccc54)ncnc32)[C@H](O)[C@@H]1O (stereo partly shown) [Example 14, N^6-(1-tetralinyl)-5'-O-(O-acetylsalicoyl)adenosine] | 0 | 0 | 0 | 22 | 8220 |  |  |  |  |  | 54 | 69 | 94 | 94 |  |  |  |  |  |
| OC[C@H]1O[C@@H](n2cnc3c(NCC4(O)CCCc5ccccc54)ncnc32)[C@H](O)[C@@H]1O (stereo partly shown) [Example 23, N^6-[1-hydroxy-1-tetralinyl]methyl adenosine] |  | 0 | 0 | 22 | 108 |  |  |  |  |  |  | 19 | 16 | 77 |  |  |  |  |  |
| OC[C@H]1O[C@@H](n2cnc3c(NCC4(O)CCCCc5ccccc54)ncnc32)[C@H](O)[C@@H]1O (stereo partly shown) [Example 27, N^6-(1-hydroxy-1-benzocycloheptyl]methyladenosine] |  | 0 | 11 | 0 | 445 |  |  |  |  |  |  | 1 | 33 | 33 |  |  |  |  |  |
| COc1ccc2c(c1)C(Nc1ncnc3c1ncn3[C@H]1O[C@H](CO)[C@@H](O)[C@H]1O)CCC2 (stereo partly drawn) [Example 9, (S)-N^6-(7-methoxy-1-tetralinyl)-adenosine] |  | 11 | 0 | 11 | 4550 |  |  |  |  |  |  | −35 | −11 | −3 |  |  |  |  |  |
| OC[C@H]1O[C@@H](n2cnc3c(NCC4=CCCc5ccccc54)ncnc32)[C@H](O)[C@@H]1O [Example 24, N^6-[3,4-dihydro-1-naphthalenyl]methyladenosine] | 0 | 22 | 22 | 11 | 159 |  |  | 0 |  |  | 34 | 67 | 94 | 95 |  |  | 9 |  |  |

Second part, led by results:

| Screen test failure ([1]; 1 mg/kg intraperitoneally) [%] | Screen test failure ([1]; 3 mg/kg intraperitoneally) [%] | Screen test failure ([1]; 10 mg/kg intraperitoneally) [%] | Screen test failure ([1]; 30 mg/kg intraperitoneally) [%] | IC50 [2] [nM] | Screen test failure ([1]; 0.03 mg/kg intraperitoneally) [%] | Screen test failure ([1]; 0.1 mg/kg intraperitoneally) [%] | Screen test failure ([1]; 0.3 mg/kg intraperitoneally) [%] | Screen test failure ([1]; 100 mg/kg intraperitoneally) [%] | Screen test failure ([1]; 9.0 mg/kg intraperitoneally) [%] | SMILES | Inhibition of mouse locomotor activity ([3]; 1 mg/kg intraperitoneally) [%] | Inhibition of mouse locomotor activity ([3]; 3 mg/kg intraperitoneally) [%] | Inhibition of mouse locomotor activity ([3]; 10 mg/kg intraperitoneally) [%] | Inhibition of mouse locomotor activity ([3]; 30 mg/kg intraperitoneally) [%] | Inhibition of mouse locomotor activity ([3]; 0.03 mg/kg intraperitoneally) [%] | Inhibition of mouse locomotor activity ([3]; 0.1 mg/kg intraperitoneally) [%] | Inhibition of mouse locomotor activity ([3]; 0.3 mg/kg intraperitoneally) [%] | Inhibition of mouse locomotor activity ([3]; 100 mg/kg intraperitoneally) [%] | Inhibition of mouse locomotor activity ([3]; 9.0 mg/kg intraperitoneally) [%] |
| --- | --- | --- | --- | --- | --- | --- | --- | --- | --- | --- | --- | --- | --- | --- | --- | --- | --- | --- | --- |
|  |  | 77 | 88 | 19 | 0 | 0 | 11 | 77 |  | CC1CCc2ccccc2C1Nc1ncnc2c1ncn2[C@@H]1O[C@H](CO)[C@@H](O)[C@H]1O (stereo partly shown) [Example 4, N^6-[1-(2-Methyl)-tetralinyl]-adenosine] |  |  | 97 | 99 | 3 | 1 | 70 | 99 |  |
| 11 | 22 |  | 66 | 44 |  | 0 | 0 |  | 33 | OC[C@H]1O[C@@H](n2cnc3c(NC4CCCc5ccccc54)ncnc32)[C@H](O)[C@@H]1O (stereo partly drawn) [Example 2, (R)-N^6-[1-Tetralinyl]-adenosine] | 79 | 95 |  | 99 |  | 25 | 45 |  | 97 |
| 22 | 22 | 55 | 55 | 500 |  |  | 11 |  |  | CC(=O)OC[C@H]1O[C@@H](n2cnc3c(NC4CCCc5ccccc54)ncnc32)[C@H](O)[C@@H]1O (stereo partly shown) [Example 15, N^6-(1-tetralinyl)-5'-acetyl-adenosine] | 87 | 96 | 98 | 99 |  |  | 46 |  |  |
|  | 0 | 0 | 0 | 36 |  |  |  |  |  | OC[C@H]1O[C@@H](n2cnc3c(NC4CCCc5c(O)cccc54)ncnc32)[C@H](O)[C@@H]1O (stereo partly shown) [Example 16, N^6-[1-(5-hydroxy)-tetralinyl]-adenosine] |  | −13 | 23 | 89 |  |  |  |  |  |
|  | 0 | 0 | 22 | 71 |  |  |  |  |  | OC[C@H]1O[C@@H](n2cnc3c(NC4CCCc5ccc(O)cc54)ncnc32)[C@H](O)[C@@H]1O (stereo partly shown) [Example 17] |  | 44 | 88 | 91 |  |  |  |  |  |
| 0 | 11 | 22 | 66 | 42 |  |  | 0 |  |  | COc1cccc2c1CCCC2Nc1ncnc2c1ncn2[C@@H]1O[C@H](CO)[C@@H](O)[C@H]1O (stereo partly shown) [Example 7, N^6-[5-Methoxy-1-aminotetralin]-adenosine] | 22 | 91 | 97 | 99 |  |  | 7 |  |  |

From patent EP0179667B1, “N6-substituted adenosines” (priority 1984, dated 1986)
